Several values for one entry are separate records, joined by “and”; a condition that tells them apart may be missing. Equal entries are not always repeated. Inconclusive results and toxic doses are left out. Rule for the calls: active = survival T/C of 150% or more; inactive = T/C below 125% in these data.
Test system: CD2F1 mice, L1210 leukemia ip, survival T/C
Assay: NCI In Vivo Anticancer Drug Screen. Data for tumor model L1210 Leukemia (intraperitoneal) in CD2F1 (CDF1) mice
Conditions: higher = longer survival
Summary of the method: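 Implant tumor; dose compound or vehicle; measure endpoint in both groups; report treated divided by control.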

[1] = endpoint: mean survival time, dose: 50.0 mg/kg/injection, schedule: Q01DX009 (ip), vehicle: saline with Tween-80
[2] = endpoint: mean survival time, dose: 100.0 mg/kg/injection, schedule: Q01DX009 (ip), vehicle: saline with Tween-80
[3] = endpoint: mean survival time, dose: 200.0 mg/kg/injection, schedule: Q01DX009 (ip), vehicle: saline with Tween-80
[4] = endpoint: mean survival time, dose: 50.0 mg/kg/injection, schedule: Q04DX002 (ip), vehicle: saline with Tween-80
[5] = endpoint: mean survival time, dose: 100.0 mg/kg/injection, schedule: Q04DX002 (ip), vehicle: saline with Tween-80
[6] = endpoint: mean survival time, dose: 200.0 mg/kg/injection, schedule: Q04DX002 (ip), vehicle: saline with Tween-80
[7] = endpoint: mean survival time, dose: 100.0 mg/kg/injection, schedule: Q04DX003 (ip), vehicle: saline with Tween-80
[8] = endpoint: mean survival time, dose: 200.0 mg/kg/injection, schedule: Q01DX001 (ip), vehicle: saline with Tween-80
[9] = endpoint: mean survival time, dose: 200.0 mg/kg/injection, schedule: Q04DX003 (ip), vehicle: saline with Tween-80
[10] = endpoint: mean survival time, dose: 400.0 mg/kg/injection, schedule: Q01DX001 (ip), vehicle: saline with Tween-80
[11] = endpoint: mean survival time, dose: 400.0 mg/kg/injection, schedule: Q04DX003 (ip), vehicle: saline with Tween-80
[12] = endpoint: mean survival time, dose: 400.0 mg/kg/injection, schedule: Q01DX009 (ip), vehicle: saline with Tween-80
[13] = endpoint: mean survival time, dose: 100.0 mg/kg/injection, schedule: Q04DX002 (ip), vehicle: saline
[14] = endpoint: mean survival time, dose: 200.0 mg/kg/injection, schedule: Q04DX002 (ip), vehicle: saline
[15] = endpoint: mean survival time, dose: 400.0 mg/kg/injection, schedule: Q04DX002 (ip), vehicle: saline
[16] = endpoint: mean survival time, dose: 25.0 mg/kg/injection, schedule: Q01DX009 (ip), vehicle: saline with Tween-80
[17] = endpoint: mean survival time, dose: 400.0 mg/kg/injection, schedule: Q04DX002 (ip), vehicle: saline with Tween-80
[18] = endpoint: mean survival time, dose: 100.0 mg/kg/injection, schedule: Q01DX001 (ip), vehicle: saline with Tween-80

Measured: T/C

CS(=O)(=O)OCCN(CCOS(C)(=O)=O)c1ccc([N+](=O)[O-])cc1
inactive: endpoint: mean survival time, dose: 12.5 mg/kg/injection, schedule: Q01DX010 (ip), vehicle: saline 100 % of control | endpoint: mean survival time, dose: 25.0 mg/kg/injection, schedule: Q01DX010 (ip), vehicle: saline 100 % of control | endpoint: mean survival time, dose: 50.0 mg/kg/injection, schedule: Q01DX010 (ip), vehicle: saline 115 % of control | endpoint: mean survival time, dose: 100.0 mg/kg/injection, schedule: Q01DX010 (ip), vehicle: saline 106 % of control

COc1cc(OC)c(NC(=O)Nc2ccc(C)c([N+](=O)[O-])c2)cc1Cl
inactive: [1] 98 % of control | [2] 90 % of control | [3] 94 % of control

CC(C)C(O)(c1ccccc1)C(O)(c1ccccc1)C(C)C (stereo not drawn)
inactive: [4] 100 % of control | [5] 96 % of control | [6] 100 % of control

CC(=O)OC1CCC2(C)C(=CC=C3C2CCC2(C)C3CC3OC4(CCC(C)CO4)C(C)C32)C1 (stereo not drawn)
inactive: endpoint: mean survival time, dose: 50.0 mg/kg/injection, schedule: Q01DX009 (ip), vehicle: Klucel (hydroxypropylcellulose) (HPC) 92 % of control | endpoint: mean survival time, dose: 100.0 mg/kg/injection, schedule: Q01DX009 (ip), vehicle: Klucel (hydroxypropylcellulose) (HPC) 97 % of control | endpoint: mean survival time, dose: 200.0 mg/kg/injection, schedule: Q01DX009 (ip), vehicle: Klucel (hydroxypropylcellulose) (HPC) 94 % of control

O=C(N/N=C/c1ccc2c(c1)CCC2)c1cccc([N+](=O)[O-])c1
inactive: [7] 91 % of control | [8] 94 % of control | [9] 94 % of control | [10] 101 % of control | [11] 106 % of control

O=C(CNC(=O)NCc1ccco1)NNC(=O)Nc1ccc(F)c(Cl)c1
inactive: [2] 93 % of control | [3] 88 % of control | [12] 96 % of control

O=C(O)CC(=O)O.[NH-]CC(O)CN=Cc1ccccc1O.[Pt] (stereo not drawn)
inactive: endpoint: median survival time, dose: 5.0 mg/kg/injection, schedule: Q04DX003 (ip), vehicle: water 108 % of control | endpoint: median survival time, dose: 10.0 mg/kg/injection, schedule: Q04DX003 (ip), vehicle: water 105 % of control | endpoint: median survival time, dose: 20.0 mg/kg/injection, schedule: Q04DX003 (ip), vehicle: water 108 % of control | endpoint: median survival time, dose: 25.0 mg/kg/injection, schedule: Q04DX003 (ip), vehicle: water 110 % of control | endpoint: median survival time, dose: 40.0 mg/kg/injection, schedule: Q04DX003 (ip), vehicle: water 108 % of control | endpoint: median survival time, dose: 50.0 mg/kg/injection, schedule: Q04DX003 (ip), vehicle: water 110 % of control | endpoint: median survival time, dose: 100.0 mg/kg/injection, schedule: Q04DX003 (ip), vehicle: water 105 % of control | endpoint: median survival time, dose: 200.0 mg/kg/injection, schedule: Q04DX003 (ip), vehicle: water 103 % of control

CCOC(=O)CN1C(=O)C(Cl)=C(Cl)C1=O
inactive: endpoint: mean survival time, dose: 12.5 mg/kg/injection, schedule: Q04DX003 (ip), vehicle: saline with Tween-80 98 % of control

CCCCCC(C)SC#N (stereo not drawn)
inactive: [2] 97 % of control

Cc1cc(C)c(CC2(C)SCCCS2)c(C)c1
inactive: endpoint: median survival time, dose: 50.0 mg/kg/injection, schedule: Q04DX002 (ip), vehicle: saline with Tween-80 100 % of control | endpoint: median survival time, dose: 100.0 mg/kg/injection, schedule: Q04DX002 (ip), vehicle: saline with Tween-80 100 % of control | endpoint: median survival time, dose: 200.0 mg/kg/injection, schedule: Q04DX002 (ip), vehicle: saline with Tween-80 100 % of control | endpoint: median survival time, dose: 400.0 mg/kg/injection, schedule: Q04DX002 (ip), vehicle: saline with Tween-80 110 % of control

CCCCCCCCCCCCC(=O)N1CCOCC1
inactive: [2] 105 % of control | [3] 94 % of control | [12] 103 % of control

C=CC[N+]12CC=C(CO)C1C(O)CC2 (stereo not drawn)
inactive: [13] 101 % of control | [14] 104 % of control | [15] 97 % of control

Nc1ccc2[nH]c(-c3ccc(S(=O)(=O)F)cc3)cc(=O)c2c1
inactive: [2] 102 % of control | [3] 106 % of control | [12] 113 % of control

O=C(O)CCc1c[nH]c2ccccc12
inactive: [7] 98 % of control | [9] 102 % of control | [11] 108 % of control

COc1ccc(NC(=O)Oc2ccc(SC)c(C)c2)cc1
inactive: [16] 101 % of control | endpoint: mean survival time, dose: 25.0 mg/kg/injection, schedule: Q04DX002 (ip), vehicle: saline with Tween-80 100 % of control | [1] 95 % of control | [4] 107 % of control | [2] 89 % of control | [5] 91 % of control and 104 % of control | [17] 91 % of control

O=C(c1cccnc1)c1c[nH]c2ccccc12
inactive: [5] 101 % of control | [6] 97 % of control | [17] 97 % of control

CC(O)C(NC(=O)c1cnc(OCc2ccccc2)nc1N)C(=O)O (stereo not drawn)
inactive: endpoint: mean survival time, dose: 6.25 mg/kg/injection, schedule: Q01DX009 (ip), vehicle: saline with Tween-80 104 % of control | endpoint: mean survival time, dose: 12.5 mg/kg/injection, schedule: Q01DX009 (ip), vehicle: saline with Tween-80 100 % of control | [16] 104 % of control

Cc1cc(N(CCCOS(C)(=O)=O)CCCOS(C)(=O)=O)ccc1C=Nc1ccc2ccccc2c1
inactive: [16] 93 % of control | [1] 93 % of control | [2] 88 % of control

CS(=O)(=O)C(=Cc1ccccc1Cl)S(C)(=O)=O
inactive: [7] 103 % of control | [9] 95 % of control | [11] 101 % of control

S=c1n(Cc2ccccc2)cnc2ncnn12
inactive: endpoint: mean survival time, dose: 100.0 mg/kg/injection, schedule: Q04DX003 (ip), vehicle: Klucel (hydroxypropylcellulose) (HPC) 98 % of control | endpoint: mean survival time, dose: 200.0 mg/kg/injection, schedule: Q04DX003 (ip), vehicle: Klucel (hydroxypropylcellulose) (HPC) 111 % of control

NC1CCC(=O)NC1c1ccccc1 (stereo not drawn)
inactive: [13] 97 % of control | [14] 101 % of control | [15] 101 % of control

O=C1C=C(C2OC(CO)C(O)C2O)C(=O)N1 (stereo not drawn)
inactive: endpoint: mean survival time, dose: 5.0 mg/kg/injection, schedule: Q01DX009 (ip), vehicle: saline with Tween-80 106 % of control | endpoint: mean survival time, dose: 10.0 mg/kg/injection, schedule: Q01DX009 (ip), vehicle: saline with Tween-80 111 % of control | endpoint: mean survival time, dose: 20.0 mg/kg/injection, schedule: Q01DX009 (ip), vehicle: saline with Tween-80 111 % of control

CCC(CC)c1ccccn1
inactive: endpoint: mean survival time, dose: 100.0 mg/kg/injection, schedule: Q01DX009 (ip), vehicle: saline 115 % of control | endpoint: mean survival time, dose: 100.0 mg/kg/injection, schedule: Q04DX003 (ip), vehicle: saline 99 % of control | endpoint: mean survival time, dose: 200.0 mg/kg/injection, schedule: Q01DX009 (ip), vehicle: saline 120 % of control | endpoint: mean survival time, dose: 200.0 mg/kg/injection, schedule: Q04DX003 (ip), vehicle: saline 99 % of control | endpoint: mean survival time, dose: 400.0 mg/kg/injection, schedule: Q01DX009 (ip), vehicle: saline 117 % of control | endpoint: mean survival time, dose: 400.0 mg/kg/injection, schedule: Q04DX003 (ip), vehicle: saline 110 % of control

O=C(Nc1ccc(F)cc1)Nc1cccc2ccccc12
inactive: [7] 96 % of control | [9] 96 % of control | [11] 111 % of control

CC1(C)Oc2[nH]c(=O)n(-c3ccc(Cl)cc3)c(=O)c2C1c1ccc(Cl)cc1 (stereo not drawn)
inactive: [5] 102 % of control | [6] 105 % of control | [17] 109 % of control

O=C(O)CS(=O)c1ccc(Cl)cc1 (stereo not drawn)
inactive: endpoint: mean survival time, dose: 50.0 mg/kg/injection, schedule: Q01DX001 (ip), vehicle: saline with Tween-80 104 % of control | [18] 95 % of control | [8] 88 % of control

CC(=O)NC1C(OS(=O)(=O)c2ccc(C)cc2)C(NC(C)=O)C(OC(C)=O)C(OC(C)=O)C1OC(C)=O (stereo not drawn)
inactive: [18] 97 % of control | [8] 103 % of control | [10] 101 % of control

ClCc1ccc(Cl)c(Cl)c1Cl
inactive: [16] 100 % of control | [1] 100 % of control | [2] 100 % of control

COC1=C(C)C(=O)C2=C(C1=O)C(CO)N1C(C#N)C3CC4C(C1C2N1CCOC41)N3C (stereo not drawn)
inactive: endpoint: median survival time, dose: 0.12 mg/kg/injection, schedule: Q01DX005 (ip), vehicle: acid diluted with saline 102 % of control | endpoint: median survival time, dose: 0.12 mg/kg/injection, schedule: Q01DX009 (ip), vehicle: saline + alcohol 111 % of control | endpoint: median survival time, dose: 0.25 mg/kg/injection, schedule: Q01DX005 (ip), vehicle: acid diluted with saline 102 % of control | endpoint: median survival time, dose: 0.25 mg/kg/injection, schedule: Q01DX009 (ip), vehicle: saline + alcohol 113 % of control | endpoint: median survival time, dose: 0.5 mg/kg/injection, schedule: Q01DX005 (ip), vehicle: acid diluted with saline 105 % of control | endpoint: median survival time, dose: 0.5 mg/kg/injection, schedule: Q01DX009 (ip), vehicle: saline + alcohol 111 % of control | endpoint: median survival time, dose: 1.0 mg/kg/injection, schedule: Q01DX005 (ip), vehicle: acid diluted with saline 104 % of control | endpoint: median survival time, dose: 1.0 mg/kg/injection, schedule: Q01DX009 (ip), vehicle: saline + alcohol 108 % of control

Source: PubChem BioAssay AID256 (DTP/NCI, 2004)
